We go through 2 molecules from patent publication US11439655B2, “Compounds for use in wound healing and angiogenesis” (UNIVERSITY OF SOUTH CAROLINA, priority 2017, dated 2022).

In data set [1] the test system is HUVECs. Nature of the data set: Capillary tube formation on matrigel. Format: cell-based, human. The note with it: 10 and 20 μg/ml. The protocol: [formula] where Wn is the width of gap after every 4 hours and W0 is the initial width zero right after forming a scratch. Capillary Tube Formation Matrigel kept in a −20° C. freezer and thawed on ice overnight in a 4° C. refrigerator. A total of 50 μl of thawed matrigel was added to each well of pre-chilled 96-well plate and then incubated for 30 min at 37° C. to form a gel. Next, 100 μl of a HUVEC cell suspension (passage 2-6) in conditioned media (20000 cell/well) including the compounds of this invention was added to gel and incubated at 37° C. for 8 hours. The number of junctions in tubes was examined using a phase contrast inverted microscope (Invitrogen EVOS FL Auto Cell Imaging) and compared to the conditions with no compound (negative control).

Data set [2] concerns NHDFs. Nature of the data set: In vitro scratch assay (simulated wound closure, cell migration). Format: cell-based, human. The note with it: for time of wound closure of fibroblast compared to the control (growth media): after multiple different time intervals. As to the method: (§1) In Vitro Scratch Assay Cell migration was assessed through making a scratch on confluent monolayers of NHDFs and NHEKs. A total of 15×10^4 cells per well were seeded on a 24 well plate and left overnight to reach confluency. The cell layer was then scraped using a 200 μl pipet tip and any cell debris was washed away with PBS. The samples were supplemented with different concentration of the compounds of interest in growth media and incubated at 37° C. and 5% CO2 for 20 hours. Images were taken every 4 hours using a phase contrast Nikon Eclipse Ti-E inverted microscope. Quantification of percent wound healing was performed by measuring the gap distance using the following formula, [formula] where Wn is the width of gap after every 4 hours and W0 is the initial width zero right after forming a scratch. Capillary Tube Formation

Data set [3] deals with NHEKs. The data set is described as above. Format: cell-based, human. The note with it: for NHEK gap closure / level of wound closure vs control: compounds 10 and 20 μg/ml, extract 50 μg/ml, over 20 h, control growth media; for time of wound closure of keratinocyte compared to the control (growth media): after multiple different time intervals. The protocol:
as §1

Data set [4] has as its system Normal Human Epidermal Keratinocytes (NHEKs). Nature of the data set: Cytotoxicity assay (MTS), cell viability/proliferation. Particulars: 24 h exposure, 10, 20, 50 and 100 μg/ml, vs control and DMSO vehicle control. Format: cell-based. The protocol: (§2) Human Umbilical Vein Endothelial cells (HUVEC), Adult Normal Human Epidermal Keratinocytes (NHEK), Normal Human Dermal fibroblast (NHDF) and related media for cell culture including endothelial basal and growth medium-2 (EBM-2, EGM-2), keratinocyte basal and growth medium-2 (KBM-2, KGM™-2), fibroblast basal and growth medium (FBM, FGM™) were purchased from Lonza. The cell types were selected due to their important physiologic role in early and late stages of wound healing. Cells were incubated at 37° C. and 5% CO2 throughout the examples. Phosphate-Buffered Saline (PBS), [3-(4,5-dimethylthiazol-2-yl)-5-(3-carboxymethoxyphenyl)-2-(4-sulfophenyl)-2H-tetrazolium (MTS) (Promega) colorimetric assay and growth factor reduced matrigel BD (Corning) were from Sigma-Aldrich.
(§3) In order to determine cell viability, HUVECs, NHDFs, and NHEKs were cultured in their growth media to reach 80% confluency. Cells were seeded at the density of 5×10^3 cell per 96 well plate in a total volume of 100 μl in each well. After seeding, the cells were incubated for 24 hours at 37° C. and 5% CO2 to allow for cell attachment. Media was changed and replaced with media supplemented with the desired concentration of the test compounds (10, 20, 50 and 100 μg/ml), being first dissolved at 10 mg/ml in DMSO and subsequently diluted in culture media. The vehicle control was culture medium supplemented with DMSO 0.5% (Macron Fine Chemicals), representing the highest final concentration of DMSO used to dissolve the natural compound. Following 24 hours of incubation, […] and incubated for 2 hours.

Data set [5] relates to Human Umbilical Vein Endothelial Cells (HUVECs). The data set is described as above. Format: cell-based. Particulars: 24 h exposure, 10, 20, 50 and 100 μg/ml, vs control and DMSO vehicle control. The protocol: as §2, §3
The subject of data set [6] is Normal Human Dermal Fibroblasts (NHDFs). Described as above. Format: cell-based. Particulars: 24 h exposure, 10, 20, 50 and 100 μg/ml, vs control and DMSO vehicle control. The protocol:
as §2, §3

In the case of `O=C(/C=C/c1ccc(O)c(O)c1)O[C@@H]1C[C@](O)(C(=O)O)C[C@@H](O)[C@H]1O` [3-O-caffeoylquinic acid], the “capillary tube (tubule) formation, phase contrast microscopy” value in data set [1] is “formation of tubules assembled by the elongation and joining of HUVECs”. In addition, the “NHDF gap closure / migration into the scratched gap vs control” value in data set [2] (NHDFs, compounds 10 and 20 μg/ml, extract 50 μg/ml, over 20 h) is reported as “delayed effect on NHDF gap closure at 20 h post-seeding”. Further, in data set [2], the “time of wound closure of fibroblast compared to the control (growth media)” value was “reduced time of wound closure”. In data set [3] (NHEKs, 10 μg/ml, 6 h), the “percentage of gap closed (simulated wound closure)” value was “approximately 40%”. Also, the “NHEK gap closure / level of wound closure vs control” value in data set [3] (NHEKs) is recorded as “highest level of wound closure”. Moreover, the “NHEK migration rate at higher concentration” value in data set [3] (NHEKs, higher concentration (20 μg/ml) vs 10 μg/ml) was “did not lead to a faster migration rate”. Moreover, in data set [3], the “time of wound closure of keratinocyte compared to the control (growth media)” value is “reduced time of wound closure”.

Regarding `C[C@H]1O[C@@H](Oc2c(-c3cc(O)c(O)c(O)c3)oc3cc(O)cc(O)c3c2=O)[C@@H](O)[C@@H](O)[C@@H]1O` [myricetin-3-o-ß-rhamnoside], in data set [1], the “capillary tube (tubule) formation, phase contrast microscopy” value was “formation of tubules assembled by the elongation and joining of HUVECs”. Moreover, the “number of junctions relative to control groups” value in data set [1] (8 h) was “approximately 3 fold”. For the same molecule, the “toxicity (cell viability, MTS assay)” value in data set [4], in data set [5] and in data set [6] was “No toxicity was observed” in each case. In addition, the NHDF gap closure entry in data set [2] (NHDFs, 10 μg/ml, all time points up to 20 h) was “accelerated gap closure at all time points”. Also, the “NHDF wound closure at higher concentration” value in data set [2] (NHDFs, higher concentration (20 μg/ml), early time points) was “negative effect on wound closure during early time points”. In addition, the “time of wound closure of fibroblast compared to the control (growth media)” value in data set [2] is “reduced time of wound closure”. Moreover, the “NHEK gap closure / level of wound closure vs control” value in data set [3] (NHEKs) was “Neither myricetin-3-o-ß-rhamnoside nor total P. persica extract led to a significantly higher NHEK gap closure than the control”. Moreover, the “time of wound closure of keratinocyte compared to the control (growth media)” value in data set [3] is given as “reduced time of wound closure”.
